Data reported in patent EP4803512A1, “COMPOUND CAPABLE OF INHIBITING CONNEXIN-ASSOCIATED KINASE 1, PREPARATION, AND USE THEREOF” (Xizang Haisco Pharmaceutical Co., Ltd., priority 2023, dated 2025).

How the values were obtained:
[1] = Pharmacokinetic assay in mice; format: in vivo, ICR mice; details: plasma
Protocol: 3.1 Experimental animals: Male ICR mice, 20-25 g, 6 mice/compound, purchased from Chengdu Dossy Experimental Animals Co., Ltd.
3.2 Experimental design: on the day of the experiment, the ICR mice were randomly grouped according to their body weights. The animals were fasted with water available for 12-14 h one day before the administration, and were fed 4 h after the administration. Table 3 Administration information
vehicle for intravenous administration: 5%DMA+5%HS-15+90%NS; vehicle for intragastric administration: 0.5% MC; before and after administration, 0.06 mL of blood was taken from the orbit under isoflurane anaesthesia and placed in an EDTAK2 centrifuge tube. The tube was centrifuged at 5000 rpm at 4°C for 10 min, and plasma was collected. The blood sampling time points for both the intravenous administration group and intragastric administration group were 0, 5 min, 15 min, 30 min, 1 h, 2 h, 4 h, 7 h and 24 h. Before analysis and detection, all samples were stored at -80°C, and the samples were quantitatively analysed by LC-MS/MS. Table 4 Pharmacokinetic parameters of test compounds in plasma of mice

[2] = target: T1, hERG potassium channel (Homo sapiens, UniProt Q12809); test: hERG potassium channel activity assay, manual whole-cell patch clamp; format: cell-based; details: IC50, inhibition of hERG potassium channel current, CHO cells stably expressing hERG
T1 construct: expressed in transfected cells
Excerpt: 2.1 Experimental preparation: Experimental platform: manual electrophysiological patch-clamp system; Cell line: Chinese hamster ovary (CHO) cell line stably expressing hERG potassium channel.
2.2. Experimental method: In Chinese Hamster Ovary (CHO) cells stably expressing hERG potassium channel, the whole-cell patch-clamp technique was used to record hERG potassium channel current at room temperature. The glass microelectrodes were pulled from glass electrode blanks (BF150-86-10, Sutter) by a glass microelectrode puller. The tip resistance of the microelectrodes after being filled with intrapipette solution was about 2-5 MΩ. The glass microelectrodes were connected to the patch-clamp amplifier by inserting them into an amplifier probe. The clamping voltage and data recording were controlled and recorded by the pClamp 10 software through a computer, with a sampling frequency of 10 kHz and a filtering frequency of 2 kHz. After the whole cell records were obtained, the cells were clamped at -80 mV, and the step voltage that induced the hERG potassium current (I hERG) was depolarised from -80 mV to +20 mV for 2 s, then repolarised to -50 mV, and returned to -80 mV after 1 s. […]
Compound IC50 was calculated using GraphPad Prism 5 software by fitting according to the following equation: Y = Bottom + (Top−Bottom)/(1+10^(∧)((LogIC50−X)×HillSlope)) [formula] […]

[3] = Liver microsomal stability assay, rat liver microsomal model; format: in vitro ADME; details: rat liver microsomes, 1 µM, 37°C, NADPH
Protocol: In this experiment, liver microsomes of five species, including human, monkey, dog, rat and mouse, were used as in vitro models to evaluate the metabolic stability of the test compound.
At 37°C, 1 µM of the test compound was co-incubated with microsomal protein and coenzyme NADPH. At given time points of the reaction (5 min, 10 min, 20 min, 30 min, and 60 min), the reaction was terminated by adding ice-cold acetonitrile containing an internal standard. The LC-MS/MS method was used to measure the concentration of the test compound in the sample. T1/2 was calculated using the ln value of the percentage of drug remaining in the incubation system and the incubation time. In addition, the intrinsic clearance in liver microsomes CLint(mic) and the intrinsic clearance in liver CLint(Liver) were further calculated. Table 7 Results of test compounds in rat liver microsomal model

[4] = target: T2, AAK1 (Homo sapiens, UniProt Q2M2I8); test: In vitro AAK1 enzyme activity assay (ADP-Glo); format: biochemical; details: inhibitory activity against AAK1
T2 construct: purchased Signalchem A01-11G-10
Protocol: Compound stock solution (concentration: 10 mM, dissolved in DMSO) was diluted with DMSO to 0.2 mM and then diluted with DMSO in 5-fold gradient to obtain compound solutions with 10 concentrations. Subsequently, the compound solutions with different concentrations were diluted 50-fold in 1× kinase reaction buffer (containing 40 mM Tris, 20 mM MgCl2, 0.1% BSA and 0.5 mM DTT) for later use. AAK1 (Signalchem, Cat# A01-11G-10) was diluted with 1× kinase reaction buffer to 2-fold the final concentration (final concentrations: 30 nM and 28 nM). AAK1 was added to a 384-well white plate at 2 µL/well, and the compounds were then added at 1 µL/well. The plate was sealed with a plate-sealing film, centrifuged at 1000 rpm for 30 seconds and then placed at room temperature for 10 minutes. […] The RLU (Relative luminescence unit) signal values were read using a Biotek multimode microplate reader, and the percent inhibition was calculated according to the following formula: [1-(LUM compound-LUM positive control) / (LUM negative control-LUM positive control)] × 100. IC50 values were calculated using Graphpad 7.0 software using a four-parameter non-linear fit equation. […]

[5] = Pharmacokinetic assay in rats; format: in vivo, SD rats; details: rat, po, plasma, Intragastric administration (5 mg/kg)
Protocol: 4.1 Experimental animals: Male SD rats, about 220 g, 6-8 weeks old, 6 rats/compound, purchased from Chengdu Dossy Experimental Animals Co., Ltd.
4.2 Experimental design: on the day of the experiment, 6 SD rats were randomly grouped according to their body weights. The animals were fasted with water available for 12-14 h one day before the administration, and were fed 4 h after the administration. Table 5 Administration information
Before and after the administration, 0.1 ml of blood was taken from the orbit under isoflurane anaesthesia and placed in an EDTAK2 centrifuge tube. The tube was centrifuged at 5000 rpm at 4°C for 10 min, and plasma was collected. Blood sampling time points for the intravenous administration group: 0, 5 min, 15 min, 30 min, 1 h, 2 h, 4 h, 6 h, 8 h and 24 h; blood sampling time points for the intragastric administration group: 0, 5 min, 15 min, 30 min, 1 h, 2 h, 4 h, 6 h, 8 h and 24 h. Before analysis and detection, all samples were stored at -80°C.

[6] = tested on: PC12 cells; details: cited from earlier work
[7] = cited from earlier work
[8] = mice; cited from earlier work
[9] = mice; cited from earlier work; remark: listed apart in the source
[10] = cited from earlier work; remark: listed apart in the source
[11] = Intragastric administration (10 mg/kg), 10 mg/kg

T1 sequence (Q12809 whole entry): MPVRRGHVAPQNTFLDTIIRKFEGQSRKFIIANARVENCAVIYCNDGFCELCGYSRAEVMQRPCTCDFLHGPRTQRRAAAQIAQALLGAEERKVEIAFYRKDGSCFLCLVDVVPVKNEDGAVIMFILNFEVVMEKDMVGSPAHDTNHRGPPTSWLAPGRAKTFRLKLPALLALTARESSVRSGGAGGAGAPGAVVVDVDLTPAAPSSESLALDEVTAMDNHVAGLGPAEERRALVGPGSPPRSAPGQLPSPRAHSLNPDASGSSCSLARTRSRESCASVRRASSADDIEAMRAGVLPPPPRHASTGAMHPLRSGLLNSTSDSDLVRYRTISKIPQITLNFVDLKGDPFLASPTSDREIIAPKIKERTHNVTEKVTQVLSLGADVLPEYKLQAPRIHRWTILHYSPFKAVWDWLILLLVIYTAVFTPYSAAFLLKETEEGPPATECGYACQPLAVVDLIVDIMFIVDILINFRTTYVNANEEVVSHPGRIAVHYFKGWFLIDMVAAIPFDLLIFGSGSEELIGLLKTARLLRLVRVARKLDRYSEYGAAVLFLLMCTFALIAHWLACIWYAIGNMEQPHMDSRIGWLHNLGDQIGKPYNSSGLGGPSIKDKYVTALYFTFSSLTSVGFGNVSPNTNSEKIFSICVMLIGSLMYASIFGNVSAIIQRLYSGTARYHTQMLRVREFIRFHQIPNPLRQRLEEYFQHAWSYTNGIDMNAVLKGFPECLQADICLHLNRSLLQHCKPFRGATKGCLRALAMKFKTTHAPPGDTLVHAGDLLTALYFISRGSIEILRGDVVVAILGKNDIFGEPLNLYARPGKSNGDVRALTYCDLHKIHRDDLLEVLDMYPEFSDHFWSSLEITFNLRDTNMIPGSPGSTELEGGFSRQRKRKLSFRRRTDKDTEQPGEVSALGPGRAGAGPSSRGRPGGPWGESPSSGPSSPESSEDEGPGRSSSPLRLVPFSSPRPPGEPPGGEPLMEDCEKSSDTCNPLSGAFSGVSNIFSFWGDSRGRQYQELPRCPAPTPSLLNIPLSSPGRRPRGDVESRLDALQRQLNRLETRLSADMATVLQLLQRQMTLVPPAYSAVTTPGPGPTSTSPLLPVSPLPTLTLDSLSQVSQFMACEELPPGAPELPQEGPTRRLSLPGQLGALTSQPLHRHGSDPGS
T2 sequence (Q2M2I8 27-365 limits assumed): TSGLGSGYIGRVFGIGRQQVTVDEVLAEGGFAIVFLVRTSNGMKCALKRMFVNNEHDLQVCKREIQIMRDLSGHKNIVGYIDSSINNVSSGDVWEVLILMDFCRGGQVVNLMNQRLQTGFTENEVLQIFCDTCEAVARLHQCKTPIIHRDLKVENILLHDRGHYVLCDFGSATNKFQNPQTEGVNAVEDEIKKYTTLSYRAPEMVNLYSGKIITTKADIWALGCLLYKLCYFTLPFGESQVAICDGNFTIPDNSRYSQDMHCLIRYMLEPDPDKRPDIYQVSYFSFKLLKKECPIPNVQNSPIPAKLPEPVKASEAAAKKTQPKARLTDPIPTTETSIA

Structure (SMILES): CC(O)(CO)C[C@](C)(N)COc1ccc(-c2ccnc(C(F)F)c2)nc1C(F)F (single isomer, unassigned) [Compound 1-1]
- AUC(0-t) [1, 11]: 4400 ng·h/mL
- T1/2 [1, 11]: 4.82 h
- IC50 [2]: 6.73 µM
- Percentage of drug remaining after 60 min of incubation [3]: 93.7%
- IC50 [4]: ≤ 0.02 µM

Structure (SMILES): CC(O)(CO)C[C@](C)(N)COc1ccc(-c2ccnc(C(F)F)c2)nc1C(F)F (single isomer, unassigned) [Compound 1-2]
- clearance ([1]; mouse, Intravenous administration (2.5 mg/kg)): 57.8 mL/min/kg
- Vd ([1]; mouse, Intravenous administration (2.5 mg/kg), read-out: Vdss): 10.5 L/kg
- half-life ([1]; mouse, iv, 2.5 mg/kg, Intravenous administration (2.5 mg/kg)): 2.53 h
- AUC(0-t) ([1]; mouse, iv, 2.5 mg/kg, Intravenous administration (2.5 mg/kg), read-out: AUC0-t): 630 ng·h/mL
- half-life ([1]; mouse, po, 10 mg/kg, Intragastric administration (10 mg/kg)): 3.09 h
- AUC(0-t) ([1]; mouse, po, 10 mg/kg, Intragastric administration (10 mg/kg), read-out: AUC0-t): 3520 ng·h/mL
- IC50 [2]: 13.7 µM
- AUC(0-t) [5]: 4050 ng·h/mL
- half-life [5]: 4.52 h
- Percentage of drug remaining after 60 min of incubation [3]: > 99%
- IC50 [4]: ≤ 0.02 µM

Structure (SMILES): COC(=O)[C@@]1(O)C[C@H]2O[C@]1(C)n1c3ccccc3c3c4c(c5c6ccccc6n2c5c31)C(=O)NC4 [Compound K252a]
- ErbB4 accumulation in the plasma membrane or in close proximity to the plasma membrane [6]: increased
- ErbB4 expression [6]: increased
- neuregulin-1-induced neurite outgrowth [6]: potentiates

Structure (SMILES): COc1ncccc1-c1cnn2ccc(N3CCN(C(=O)OC(C)C)CC3)nc12 [LP-935509]
- pain responses in the mouse chronic constriction injury (CCI) model [7]: significantly attenuate
- mechanical allodynia induced by SNL [8]: significantly attenuate
- pain responses in phase II of the formalin model [9]: significantly attenuate
- pain responses in the mouse streptozotocin-induced diabetic neuropathy model [10]: significantly attenuate
